Literature values as cited in US20180042936A1, “MAINTENANCE THERAPY USING TIANEPTINE” (GENOMIND, Inc., priority 2016, published 2018).
Where two headings read alike, the source gives them in different places.

Columns and labels:
[1] = some individuals with treatment-resistant major depressive disorder and bipolar disorder
[2] = system: brain derived neurotrophic factor (BDNF); conditions: responders compared to non-responders

Q: What does the source list for `CNC1(c2ccccc2Cl)CCCCC1=O` (racemic) [Ketamine, (RS)-2-(2-Chlorophenyl)-2-(methylamino)cyclohexanone]?
A: time to anti-depression efficacy [1]: ≤ 1 h; plasma BDNF levels ([2]; 240 min post-infusion (Haile et al. 2014)): significantly increased; plasma BDNF levels ([2]; post-infusion of ketamine (Example 1)): increases plasma BDNF levels
